The data set can be described thus: in vitro. Particulars: human, hela cells, % viability.

With `CC(=O)OC1CCn2c1nc1cc(C(F)(F)F)ccc12` (stereo not drawn) [CBK115367], the viability at 28.5 h, 10 µM stood at 75.1%.
The figure for `COC(=O)CCC(=O)Nc1cccc([N+](=O)[O-])c1` [CBK261345] is 95.4%; for `O=C(CN1C(=O)c2ccccc2C1=O)Nc1ccc(S(=O)(=O)N2CCCCCC2)cc1` [CBK266693] it is 91.7%; for `CS(=O)(=O)N1CC2(CCNCC2)c2ccccc21` [CBK005171] it is 94.4%.
With `Nc1nonc1-n1nncc1CN1CCCCC1` [CBK307045] the figure was 86.9%.
The figure for `COc1cc(CNC(=O)N2CCC(C(=O)O)CC2)cc(OC)c1OC` [CBK161401] is 81.5%; for `O=C(NCCN1CCCC1)c1ccc2nc[nH]c2c1` [CBK153311] it is 86%; for `COc1ccc(NC(=O)CCC(=O)O)c(OC)c1` [CBK265451] it is 104%.
On to `O=C(Cn1cccc(C(=O)NCc2ccccc2)c1=O)NC1(c2ccccc2)CCCC1` [CBK286058], for which the viability at 28.5 h, 10 µM worked out at 89.1%.
The figure for `CCOC(=O)C1CCCN(Cc2c[nH]nc2-c2ccc(OC)cc2F)C1` (stereo not drawn) [CBK307304] is 91.1%; for `Cc1ccnc(Nc2nc3ccccc3o2)n1` [CBK022772] it is 87.5%; for `O=C(c1cccc2[nH]ccc12)N1CCCC2(CCN(Cc3ccccc3)C2)C1` (stereo not drawn) [CBK136887] it is 93.5%.
For the compound `COc1ccc2c(c1)CCc1sc(NS(=O)(=O)c3cccc(Cl)c3C)nc1-2` [CBK200033], the viability at 28.5 h, 10 µM is 84.3%.
With `Cc1ccc(NC(=O)CN2C(=O)S/C(=C\c3cc(C)n(-c4ccc(C(=O)O)cc4)c3C)C2=O)cc1` [CBK264465] the figure was 91.6%; with `Cc1ccnc2nc(C(=O)OC(C)C(=O)NC3CC3)nn12` (stereo not drawn) [CBK304998], 92.5%; with `CSCCCNC(=O)N(CCC#N)C1CCCCC1` [CBK156348], 104%.
With `COc1ccc(-c2nnc(SCC(=O)NC(=O)c3ccccc3)n2CC(C)C)cc1` [CBK297527] the figure was 101%.
With `CCn1c(SCc2cc(C)no2)nnc1C1CC1` [CBK297758] the figure was 102%; with `CC(=O)N1Cc2cc(C)ccc2OC2(CCCN(CC3CC3)C2)C1` (stereo not drawn) [CBK285104], 88.7%.
With `O=[N+]([O-])c1ccc(CN(CCc2ccccc2)Cc2ccccc2)cc1` [CBK261866], the viability at 28.5 h, 10 µM was found to be 99.2%.
On to `CC(=O)NC(CC(=O)N1CCc2sccc2C1c1ccccc1)c1ccc(F)cc1` (stereo not drawn) [CBK285548], for which the viability at 28.5 h, 10 µM was determined as 112%.
With `CCOC(=O)c1c(NC(=O)CSc2nc3ccccc3s2)sc2c1CCC2` [CBK263220] the figure was 93%; with `C[C@@H](Cn1nnc2ccccc21)NC(=O)Cc1cccs1` [CBK282312], 92.8%.
For the compound `CC(C)(C)COC(=O)N1CCC2(CC1)CC(=O)N(Cc1ccc(S(C)(=O)=O)cc1)C2=O` [CBK155949], the viability at 28.5 h, 10 µM was 91.4%.
Regarding `CC(O)CNC(=O)c1cn2cc(-c3cccs3)n(CC3CC3)c(=O)c2n1` (stereo not drawn) [CBK307117], the viability at 28.5 h, 10 µM came to 81.3%.
With `O=C(C1CCCC1)N1CCCC(c2cc3cccnc3[nH]2)C1` (stereo not drawn) [CBK284979] the figure was 105%; with `CCNC(=O)Nc1cc2ccccc2c(-c2cccnc2)n1` [CBK073787], 82.3%; with `COc1ccc(Cl)cc1Nc1nc(N)nc(CC(=O)CSc2ccc(C)cc2)n1` [CBK265200], 90.2%.
Regarding `CCc1onc(-c2ccccc2)c1C(=O)NCCO` [CBK160434], the viability at 28.5 h, 10 µM turned out to be 89.8%.
As for `Cc1noc(C)c1NC(=O)c1ccc2ccccc2n1` [CBK200309], the viability at 28.5 h, 10 µM stood at 101%.
With `COCCn1c(SC(C)C(=O)N2CCOCC2)nc2cc(Cl)ccc21` (stereo not drawn) [CBK305580] the figure was 94.8%; with `Fc1ccc(CN2CCC(n3cnc4cccnc43)CC2)cc1` [CBK283580], 98.2%; with `N#Cc1ccccc1CSc1nnc(-c2ccco2)n1-c1ccccc1` [CBK267270], 91.8%.
Turning to `COc1nc(N)nc2c1ncn2C1OC(CO)C(O)C1O` (stereo not drawn) [CBK201271], the viability at 28.5 h, 10 µM is 91.6%.
For the compound `Cc1cccnc1C(Cc1ccsc1)NC(=O)CCc1ccno1` (stereo not drawn) [CBK284804], the viability at 28.5 h, 10 µM is 86.7%.
The figure for `O=[N+]([O-])c1ccccc1S(=O)(=O)N1CCN(S(=O)(=O)c2ccc(Cl)cc2)CC1` [CBK264311] is 98.6%; for `O=C(Nc1ccc2cc[nH]c2c1)c1cccnc1` [CBK160053] it is 97.9%; for `Cc1ccc(-c2nc(Nc3ccc(F)cc3)sc2CC(=O)O)cc1` [CBK264286] it is 89.4%.
The figure for `CN(C)[C@@H]1CN(C(=O)C2CC2)C[C@H]1c1cn(C)c2ccccc12` [CBK282681] is 110%; for `O=C1CCC(=O)N1Cc1cccc(-c2ccnc(NS(=O)(=O)c3ccc(Cl)cc3)n2)c1` [CBK067436] it is 86.3%; for `COc1ccc(F)cc1-c1cccc(CC2(C(=O)NCCc3ccccc3)CCOCC2)c1` [CBK285562] it is 84.5%.
In the case of `COc1ccc(C(=O)NCC2(c3ccccc3)CCCC2)c(OC)c1` [CBK058164], the viability at 28.5 h, 10 µM amounted to 113%.
With `CNC(=S)N1CCN(c2nccnc2NS(=O)(=O)C2CC2)CC1` [CBK048905], the viability at 28.5 h, 10 µM came to 96.2%.
The figure for `c1ccc(OCCOc2ccc(N3CCNCC3)nn2)cc1` [CBK022577F] is 109%.
Consider `Cc1ccc(C2=CCN(CC(=O)Nc3ncc(C)s3)CC2)o1` [CBK283383], for which the viability at 28.5 h, 10 µM was determined as 90%.
The figure for `FC(F)(F)c1nc2ccccc2nc1SCCc1ccccc1` [CBK107204] is 90.3%.
The figure for `Cc1cc(C(=O)N2CCN(Cc3ccc(F)cc3Cl)CC2)no1` [CBK268126] is 100%; for `Clc1cc(Cl)c2[nH]c3c(c2c1)CCc1nonc1-3` [CBK025929] it is 102%.
With `O=C(O)CC(Cc1ccc(Cl)cc1)C(=O)Nc1ccc([N+](=O)[O-])cc1` (stereo not drawn) [CBK261973] the figure was 89.7%.
For `CS(=O)(=O)N1CC2(CCN(CCCOc3ccccc3)CC2)c2ccccc21` [CBK115457T], the viability at 28.5 h, 10 µM is 106%.
With `CCC(NC(=O)C(c1cccs1)c1cccs1)c1ccc(F)cc1` (stereo not drawn) [CBK286339] the figure was 93.4%.
As to `Cn1ccnc1C1(O)CC2CCC(C1)N2C(=O)c1ccccc1Cl` (stereo not drawn) [CBK284090], the viability at 28.5 h, 10 µM was determined as 99%.
The figure for `CC(C)CCNC(=O)N(CCc1ccccc1)Cc1ccccc1` [CBK155351] is 90.8%; for `COC1CCC(C(=O)Nc2cnc(-c3ccc(F)c(Cl)c3)c(-c3ccc(C(C)=O)s3)n2)CC1` (stereo not drawn) [CBK036718] it is 99.3%.
Consider `O=S(=O)(c1cccc(F)c1)N1CCC(Cc2ccccc2)CC1` [CBK044828], for which the viability at 28.5 h, 10 µM is 102%.
The figure for `FC(F)(F)c1ccc(Sc2cccc3ccccc23)nc1` [CBK089553] is 93.7%; for `O=C(NCCN1CCCC1)c1cc2cc(Cl)ccc2[nH]1` [CBK107267] it is 88%; for `NC(=O)[C@@H]1C[C@@H](O)[C@H](O)[C@H]2[C@@H]1N(c1ccc(Cl)cc1)C(=S)N2Cc1cccs1` [CBK288930] it is 94.7%.
With `Cc1nn(Cc2cccc(C(N)=O)c2)c(C)c1Br` [CBK022255] the figure was 86.9%; with `O=C(NCCO)c1cccc(-c2cncc(NCCCN3CCOCC3)n2)c1` [CBK065432], 99.4%.
With `CCn1c(C)cc(C(=O)NC2CCN(c3ncccc3C#N)CC2)c1C` [CBK306524] the figure was 87.8%; with `COc1ccc(C(=S)NCCCCCC(=O)O)cc1` [CBK288523], 87.1%; with `COC(=O)CCCCCSc1nc2ccc(O)c([N+](=O)[O-])c2s1` [CBK005867], 106%.
As for `CC(=O)NC(Cc1c[nH]cn1)C(=O)O` (stereo not drawn) [CBK261105], the viability at 28.5 h, 10 µM stood at 101%.
With `Cc1cccnc1C(NC(=O)C1CCN(S(=O)(=O)c2cccs2)CC1)c1cccs1` (stereo not drawn) [CBK060147] the figure was 111%.
For `COc1cccc(Nc2cc(-c3ccco3)ncn2)c1` [CBK090740], the viability at 28.5 h, 10 µM came to 101%.
The figure for `O=c1[nH]nc2c(S(=O)(=O)N3CCOCC3)cccn12` [CBK288469] is 94.1%; for `O=C(c1cccnc1)C1CCN(C(=O)Cc2ccsc2)CC1` [CBK283517] it is 90.7%.
The figure for `CCC(=O)Nc1nc2ccccc2n1CCN1CCOCC1` [CBK261477] is 101%; for `c1cc(CCNc2cc(-c3ccc4c(c3)OCO4)ncn2)ccn1` [CBK037689] it is 99.5%.
With `O=C(O)[C@H]1CN(C(=O)CCc2ccco2)C[C@@H]1c1ccc(F)cc1` [CBK283722], the viability at 28.5 h, 10 µM came to 86.5%.
The figure for `Cc1n[nH]c(C)c1CCC(=O)N/N=C/c1ccncc1` [CBK262888] is 112%; for `CC(C)(C)C(=O)Nc1ccc(Cc2ccc(NC(=O)C(C)(C)C)c(C(=O)O)c2)cc1C(=O)O` [CBK261393] it is 104%.
For the compound `O=C(NC(c1ccccc1)c1ccccc1)N1CCN(CCc2ccccc2)CC1` [CBK158905], the viability at 28.5 h, 10 µM turned out to be 101%.
The figure for `CCC(O)CNS(=O)(=O)c1ccc(C(C)C)cc1` (stereo not drawn) [CBK043543] is 91.6%; for `CCOC(=O)Cn1cnc2nc3c(cc2c1=O)CC(C)CC3` (stereo not drawn) [CBK294402] it is 90.6%.
Consider `O=C(O)COc1ccc(NC(=O)c2ccc3c(c2)C(=O)N(CC2CCCO2)C3=O)cc1` (stereo not drawn) [CBK263719], for which the viability at 28.5 h, 10 µM was found to be 92.5%.
Take `Cc1csc(NC(=O)c2cc(S(=O)(=O)N3CCCC3)cn2C)n1` [CBK295617]: the viability at 28.5 h, 10 µM was 87.8%.
Regarding `Cc1cc(O)cc(=O)n1Cc1ccccn1` [CBK291159], the viability at 28.5 h, 10 µM is 91.8%.
Turning to `C[C@H](Nc1nccnc1-c1cccc(O)c1)c1ccccc1` [CBK037180], the viability at 28.5 h, 10 µM was 106%.
As to `Cn1nc2c(cc1=O)CN(C(=O)c1cnc(C(C)(C)C)nc1)CC2` [CBK304293], the viability at 28.5 h, 10 µM worked out at 96.5%.

Source of the values: article PMC12040169 (PLOS Biology, 2025).
